Earlier results in US11229683B2, “Hematopoietic growth factor proteins and analogs thereof and angiotensin converting enzyme inhibitors for treatment of radiation exposure” (priority 2015, dated 2022).
Read-outs that look alike come from different tables or passages of the source.

Legend:
7.5 Gy-irradiated mice = details: cited from earlier work
8.25 Gy-irradiated mice = details: cited from earlier work
7 Gy-irradiated rats = details: 7 Gy rats; captopril 0.3 g/L in drinking water from day −7 to Day 0; cited from earlier work
8.3 Gy irradiated mice = details: cited from earlier work; for 48-day survival vs water: 8.3 Gy
plasma ACE activity = biological target: T1, plasma ACE activity (Mus musculus, UniProt P09470); details: all 3 doses: 10, 30, or 90 mg/kg sc twice per day; cited from earlier work
T1 construct: host or cells: plasma of perindopril-treated mice (endogenous enzyme)
T1 sequence (P09470 35-1237 limits assumed): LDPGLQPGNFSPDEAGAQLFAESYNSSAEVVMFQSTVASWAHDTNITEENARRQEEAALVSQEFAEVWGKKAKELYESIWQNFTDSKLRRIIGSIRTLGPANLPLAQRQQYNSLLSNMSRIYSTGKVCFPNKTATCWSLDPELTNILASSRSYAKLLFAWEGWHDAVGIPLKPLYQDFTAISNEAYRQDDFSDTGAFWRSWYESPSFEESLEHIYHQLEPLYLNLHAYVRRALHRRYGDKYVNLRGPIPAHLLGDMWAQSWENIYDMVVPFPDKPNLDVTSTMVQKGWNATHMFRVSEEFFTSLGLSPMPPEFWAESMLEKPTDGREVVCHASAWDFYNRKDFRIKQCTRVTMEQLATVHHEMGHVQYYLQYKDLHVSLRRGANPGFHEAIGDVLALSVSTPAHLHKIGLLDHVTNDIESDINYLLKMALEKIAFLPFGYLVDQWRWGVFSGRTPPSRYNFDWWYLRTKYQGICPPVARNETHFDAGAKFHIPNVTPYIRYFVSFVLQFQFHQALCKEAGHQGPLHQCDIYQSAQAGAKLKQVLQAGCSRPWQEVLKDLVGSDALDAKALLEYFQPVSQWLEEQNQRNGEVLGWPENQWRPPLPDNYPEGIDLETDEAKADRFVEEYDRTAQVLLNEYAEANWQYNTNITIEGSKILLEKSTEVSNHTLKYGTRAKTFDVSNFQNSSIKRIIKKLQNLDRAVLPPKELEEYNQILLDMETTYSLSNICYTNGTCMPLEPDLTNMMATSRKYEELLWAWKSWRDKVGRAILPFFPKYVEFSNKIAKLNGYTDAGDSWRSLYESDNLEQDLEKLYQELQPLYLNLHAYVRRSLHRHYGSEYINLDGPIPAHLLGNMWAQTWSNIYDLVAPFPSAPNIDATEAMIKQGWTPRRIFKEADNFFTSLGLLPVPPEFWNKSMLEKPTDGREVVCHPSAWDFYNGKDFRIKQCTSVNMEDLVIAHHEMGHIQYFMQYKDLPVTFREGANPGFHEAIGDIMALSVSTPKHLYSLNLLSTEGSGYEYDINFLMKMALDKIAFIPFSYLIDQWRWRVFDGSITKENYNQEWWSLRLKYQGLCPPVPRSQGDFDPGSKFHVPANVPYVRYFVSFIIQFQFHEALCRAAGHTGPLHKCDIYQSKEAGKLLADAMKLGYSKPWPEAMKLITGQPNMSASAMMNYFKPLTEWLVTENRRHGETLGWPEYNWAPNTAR

irradiated monkeys = details: cited from earlier work; for survival versus vehicle: daily sc treatment started 48 h post-TBI
[1] = system: chemotherapy (cyclophosphamide)-treated rats; details: single injection; cited from earlier work
[2] = sc 30 mg/kg twice per day for 4 days starting 48 hours before irradiation

For `C[C@H](CS)C(=O)N1CCC[C@H]1C(=O)O` [Captopril], the 30-day survival (7.5 Gy-irradiated mice; captopril 0.55 g/L in drinking water from day −7 until Day 0) is listed as 0%, the 30-day survival (7.5 Gy-irradiated mice; captopril from day 0 (1 hour post-TBI) until Day 30 post-TBI) is listed as 100% and the 30-day survival (7.5 Gy-irradiated mice; captopril from day 1 (24 h) post-TBI until Day 7 post-TBI) is listed as 85%. For the same molecule, the 30-day survival (7.5 Gy-irradiated mice; captopril from day −7 prior to TBI until Day 30 post-TBI) was 15%, the 30-day survival (8.25 Gy-irradiated mice; captopril 0.55 g/L in drinking water from day 1 to day 30 post-TBI, genestein (if given) 200 mg/kg sc 24 h pre-TBI) was 45% and the 30-day survival (8.25 Gy-irradiated mice; captopril from day 0 (1 h post-TBI) to day 30, genestein (if given) 200 mg/kg sc 24 h pre-TBI) was 55%. The 30-day survival (7 Gy-irradiated rats) was 24%.

In the case of `CCC[C@H](N[C@@H](C)C(=O)N1[C@H](C(=O)O)C[C@@H]2CCCC[C@@H]21)C(=O)OCC` [perindopril], the “48-day survival vs water” value (8.3 Gy irradiated mice; sc 10 mg/kg twice per day for 4 days starting 48 hours before irradiation) is given as “did not significantly improve”, the “48-day survival vs water” value (8.3 Gy irradiated mice; [2]) is given as “did significantly improve survival” and the “48-day survival vs water” value (8.3 Gy irradiated mice; sc 90 mg/kg twice per day for 4 days starting 48 hours before irradiation) is given as “did significantly improve survival”. The “30-day survival versus water” value (8.3 Gy irradiated mice; [2]) was “improved 30-day survival” and the “inhibition of plasma ACE activity” value (plasma ACE activity) was 100%.

B1: G-CSF: human G-CSF (filgrastim (Neupogen, Amgen, Inc.) (protein, listed as Homo sapiens)
chain: TPLGPASSLPQSFLLKCLEQVRKIQGDGAALQEKLCATYKLCHPEELVLLGHSLGIPWAPLSSCPSQALQLAGCLSQLHSGLFLYQGLLQALEGISPELGPTLDTLQLDVADFATTIWQQMEELGMAPALQPTQGAMPAFASAFQRRAGGVLVASHLQSFLEVSYRVLRHLAQP
In the case of B1, the “60-day survival of rhesus monkeys” value (irradiated monkeys; daily sc 0.01 mg/kg/day for 16-23 days, started 24 h post-TBI) is listed as “increased 60-day survival”, the “survival of irradiated monkeys” value (irradiated monkeys; daily sc beginning 24 h post-TBI for about 16 days, placebo 50%) is listed as 80% and the survival versus vehicle (irradiated monkeys) is listed as “did not increase survival”. For the same molecule, the survival versus vehicle (irradiated monkeys; listed as filgrastim) was “but not when administered at 48 h post-TBI” and the recovery from neutropenia [1] was “ineffective”.
